Common to all, as to format: functional
Test [1] has as its system Mycobacterium tuberculosis. Description: Antimycobacterial activity against ethionamide-resistant Mycobacterium tuberculosis H37Rv ATCC 35830 after 16 to 24 hrs by alamar blue assay.
Test [2] has as its system Mycobacterium tuberculosis. The experiment in a line: Antimycobacterial activity against pyrazinamide-resistant Mycobacterium tuberculosis H37Rv ATCC 35828 after 16 to 24 hrs by alamar blue assay.
For test [3], the system named is Mycobacterium tuberculosis. The experiment in a line: Antimycobacterial activity against isoniazid-, rifampin-resistant Mycobacterium tuberculosis after 16 to 24 hrs by alamar blue assay.
The test system of test [4] is Mycobacterium tuberculosis. Description: Antimycobacterial activity against isoniazid-, rifampin-, ethambutol-resistant Mycobacterium tuberculosis after 16 to 24 hrs by alamar blue assay.
For test [5], the system named is Mycobacterium tuberculosis. The experiment in a line: Antimycobacterial activity against isoniazid-, rifampin-, streptomycin-resistant Mycobacterium tuberculosis after 16 to 24 hrs by alamar blue assay.
Test [6] concerns Mycobacterium tuberculosis. The experiment in a line: Antimycobacterial activity against isoniazid-, rifampin-, streptomycin-, ethambutol-resistant Mycobacterium tuberculosis after 16 to 24 hrs by alamar blue assay.
Test [7] concerns Mycobacterium tuberculosis. The experiment in a line: Antimycobacterial activity against isoniazid-, rifampin-, ofloxacin-, ethambutol-resistant Mycobacterium tuberculosis after 16 to 24 hrs by alamar blue assay.
Test [8] relates to Mycobacterium tuberculosis. Description: Antimycobacterial activity against isoniazid-, rifampin-, ofloxacin-, streptomycin-resistant Mycobacterium tuberculosis after 16 to 24 hrs by alamar blue assay.
Test [9] concerns Mycobacterium tuberculosis. The experiment in a line: Antimycobacterial activity against isoniazid-, rifampin-, ofloxacin-, ethambutol-, streptomycin-resistant Mycobacterium tuberculosis after 16 to 24 hrs by alamar blue assay.

Experimental findings from ChEMBL document CHEMBL2016451, “Antimycobacterial activity of bisbenzylisoquinoline alkaloids from Tiliacora triandra against multidrug-resistant isolates of Mycobacterium tuberculosis” (Bioorg Med Chem Lett, 2012) are described below.

Converted amounts (≈) assume the structure as drawn.

Regarding `COc1ccc2cc1-c1cc(cc(Br)c1O)C[C@H]1c3cc4c(cc3CCN1C)Oc1c(OC)cc3c(c1O4)[C@H](C2)N(C)CC3`, the MIC in test [1] and in [2] was 3.1 µg/mL (≈ 4.73 µM) throughout.

Regarding `CN[C@@H]1[C@H](O[C@H]2[C@H](O[C@H]3[C@H](O)[C@@H](O)[C@H](N=C(N)N)[C@@H](O)[C@@H]3N=C(N)N)O[C@@H](C)[C@]2(O)C=O)O[C@@H](CO)[C@H](O)[C@H]1O` [STREPTOMYCIN], the MIC in [3] is at most 2 µg/mL; in test [4], at most 2 µg/mL; in test [5], at least 8 µg/mL; in [6], at least 8 µg/mL; in test [7] it was at most 2 µg/mL; in [8], at least 8 µg/mL. Besides, the MIC in test [9] is at least 8 µg/mL.

Turning to `COc1ccc2cc1-c1cc(ccc1O)C[C@H]1c3cc4c(cc3CCN1C)Oc1c(OC)cc3c(c1O4)[C@H](C2)N(C)CC3` [TILIACORININE], the MIC in [1] was found to be 3.1 µg/mL (≈ 5.38 µM); in test [2], 6.2 µg/mL (≈ 10.8 µM).

For the compound `NNC(=O)c1ccncc1` [ISONIAZID], the MIC in test [3], in test [4], in test [5], in test [6], in [7] and in test [8] was at least 2 µg/mL throughout. The compound further returned an MIC in [9] of at least 2 µg/mL.

With `COc1ccc2cc1-c1cc(ccc1O)C[C@H]1c3cc4c(cc3CCN1C)Oc1c(OC)cc3c(c1O4)[C@@H](C2)N(C)CC3` [TILIACORINE], the MIC in [1] was determined as 3.1 µg/mL (≈ 5.38 µM); in test [2], 6.2 µg/mL (≈ 10.8 µM).

In the case of `CO[C@H]1/C=C/O[C@@]2(C)Oc3c(C)c(O)c4c(O)c(c(/C=N/N5CCN(C)CC5)c(O)c4c3C2=O)NC(=O)/C(C)=C\C=C\[C@H](C)[C@H](O)[C@@H](C)[C@@H](O)[C@@H](C)[C@H](OC(C)=O)[C@@H]1C` [RIFAMPIN], the MIC in [3], in [4], in [5], in [6], in test [7] and in test [8] was at least 2 µg/mL each time. Moreover, the MIC in test [9] was at least 2 µg/mL.

Turning to `CC1COc2c(N3CCN(C)CC3)c(F)cc3c(=O)c(C(=O)O)cn1c23` (stereo not drawn) [OFLOXACIN], the MIC in test [3] was at most 2 µg/mL; in test [4], at most 2 µg/mL; in test [5], at most 2 µg/mL; in [6] it was at most 2 µg/mL; in test [7], at least 4 µg/mL; in test [8] it was at least 4 µg/mL. This compound also displayed an MIC in [9] of at least 4 µg/mL.

As for `COc1ccc2cc1-c1cc(ccc1O)C[C@@H]1NCCc3cc4c(cc31)Oc1c(c(OC)cc3c1[C@H](C2)N(C)CC3)O4`, the MIC in test [1] and in [2] was 6.2 µg/mL (≈ 11 µM) in each case.

As for `CC[C@@H](CO)NCCN[C@@H](CC)CO` [ETHAMBUTOL], the MIC in test [3] is at most 2 µg/mL; in test [4], at least 8 µg/mL; in test [5], at most 2 µg/mL; in [6], at least 8 µg/mL; in test [7], at least 8 µg/mL; in test [8], at most 2 µg/mL. Also, the MIC in [9] is at least 8 µg/mL.
